Measurements: patent US20240252456A1, “ORAL COMPOSITION, SKIN COSMETIC AND HAIR COSMETIC” (MARUZEN PHARMACEUTICALS CO., LTD., priority 2021, published 2024)

Experiments:
[1] = system: Normal human dermal fibroblasts (NB1RGB); assay: Type I collagen production promotive action test; format: cell-based; settings: 3 days, A/B×100 vs no sample
Procedure: Normal human dermal fibroblasts (NB1RGB) were cultured using Dulbecco's modified Eagle's medium (DMEM) containing 10% FBS, and then the cells were collected by a trypsin treatment. The collected cells were diluted with DMEM containing 0.25% FBS to a cell density of 1.6×10^5 cells/mL, then seeded with 100 μL per well in a 96-well microplate, and cultured overnight.
After the culturing was completed, 100 μL of the test sample (Sample 1, see Table 6 below for final concentration) dissolved in DMEM containing 0.25% FBS was added to each well, and culturing was performed for 3 days. As a control, culturing was performed in the same manner using DMEM containing 0.25% FBS to which no sample was added. After culturing, the amount of type I collagen in the medium of each well was measured by ELISA method. From the measurement results, the type I collagen production promotion rate (%) was calculated using the following equation.
Type I collagen production promotion rate (%)=A/B×100
Terms in the equation represent the following respective ones. • A: Type I collagen amount with test sample addition • B: Type I collagen amount without sample addition

HAS3 mRNA = assay: Hyaluronic acid synthase 3 (HAS3) mRNA expression promotive action test; format: cell-based, human; settings: 25 μmol/L; NHEK, 24 hours; A/B×100, corrected with GAPDH
Procedure: (§1) Normal human neonatal epidermal keratinocytes (NHEK) were precultured using normal human epidermal keratinocyte growth medium (KGM), and the cells were collected by a trypsin treatment. The collected cells were diluted with KGM to a cell density of 15×10^4 cells/mL, then seeded with 2 mL portions in a 6-well plate (30×10^4 cells/well), and cultured overnight under conditions of 37° C. and 5% CO2. After culturing, the medium was replaced with normal human epidermal keratinocyte basal medium (KBM, the above KGM without addition of growth additives (hEGF, BPE, insulin, antibacterial agents, hydrocortisone)), and culturing was further performed for 24 hours.
(§2) After culturing for 24 hours, the medium was removed, and 2 mL of the test sample (Sample 1, see Table 10 below for final concentration) dissolved in KBM was added to each well, and culturing was performed under conditions of 37° C. and 5% CO2 for 24 hours. As a control, culturing was performed in the same manner using KBM to which no sample was added. After culturing, the medium was removed, total RNA was extracted using ISOGEN II (available from NIPPON GENE CO., LTD.), each RNA amount was measured using a spectrophotometer, and the total RNA was prepared so as to be 150 ng/μL.
For HAS3 and GAPDH as an internal standard, the expression levels of mRNA were measured using the above total RNA as a template. […]

AQP3 mRNA = assay: Aquaporin 3 (AQP3) mRNA expression promotive action test; format: cell-based, human; settings: 100 μmol/L; NHEK, 24 hours, corrected with GAPDH
Procedure: as §1
as §2, with “17” for “10”
For AQP3 and GAPDH as an internal standard, the expression levels of mRNA were measured using the above total RNA as a template. […]

[2] = system: Mouse macrophage cells (RAW264.7); assay: Prostaglandin E2 (PGE2) production suppressive action test in mouse macrophages; format: cell-based; settings: RAW264.7, LPS 1 μg/mL, 16 hours
Procedure: Mouse macrophage cells (RAW264.7) were cultured using Dulbecco's modified Eagle's medium (DMEM) containing 10% FBS, and then the cells were collected using a cell scraper. The collected cells were diluted with DMEM containing 10% FBS to a concentration of 2.0×10^5 cells/mL, then seeded with 100 μL per well in a 96-well plate, and cultured for 18 hours.
After the culturing was completed, the medium was replaced with a medium containing 500 μmol/L aspirin and cultured for 4 hours in order to acetylate and inactivate the already existing COX-1 and the small amount of COX-2 expressed. After that, the cells were washed three times with PBS(−) buffer solution, 100 μL of the test sample (Sample 1, see Table 29 below for final concentration) dissolved in DMEM containing DMSO at a final concentration of 0.5% and 10% FBS was added to each well, then 100 μL of lipopolysaccharide (LPS) (available from DIFCO, E. coli 0111; B4) dissolved at a final concentration of 1 μg/mL in DMEM containing 10% FBS, and the cells were cultured for 16 hours. As a control, culturing was performed in the same manner using DMEM containing DMSO at a final concentration of 0.5% and 10% FBS to which no sample was added. After the culturing was completed, the amount of prostaglandin E2 in the culture supernatant of each well was determined using PGE2 EIA Kit (available from Cayman Chemical). From the obtained results, the PGE2 production suppression rate (%) was calculated using the following equation.
Terms in the equation represent the following respective ones. • A: PGE2 amount with test sample addition and with LPS stimulation • B: PGE2 amount without sample addition and with LPS stimulation • C: PGE2 amount without sample addition and without LPS stimulation

O=C(O)CCc1ccc(O)c(O)c1 [Sample 1, 3,4-Dihydroxyhydrocinnamic acid]
Type I collagen production promotion rate ([1]; 15.6 μmol/L): 107.4% | Type I collagen production promotion rate ([1]; 62.5 μmol/L): 112.8% | HAS3 mRNA expression promotion rate (HAS3 mRNA): 173. 5% | AQP3 mRNA expression promotion rate (AQP3 mRNA): 207.8% | PGE2 production suppression rate ([2]; 31.25 μmol/L): 17.9% | PGE2 production suppression rate ([2]; 125 μmol/L): 17.7% | PGE2 production suppression rate ([2]; 500 μmol/L): 41.3%
